Data on three compounds can be found in patent US5710174A, “Factor XIIIA inhibitor” (Zymo Genetics, Inc., priority 1995, dated 1998).

Assay [1] addresses T1, FXIIIa (Homo sapiens, UniProt P00488).
T1 sequence (P00488 39-732 limits assumed): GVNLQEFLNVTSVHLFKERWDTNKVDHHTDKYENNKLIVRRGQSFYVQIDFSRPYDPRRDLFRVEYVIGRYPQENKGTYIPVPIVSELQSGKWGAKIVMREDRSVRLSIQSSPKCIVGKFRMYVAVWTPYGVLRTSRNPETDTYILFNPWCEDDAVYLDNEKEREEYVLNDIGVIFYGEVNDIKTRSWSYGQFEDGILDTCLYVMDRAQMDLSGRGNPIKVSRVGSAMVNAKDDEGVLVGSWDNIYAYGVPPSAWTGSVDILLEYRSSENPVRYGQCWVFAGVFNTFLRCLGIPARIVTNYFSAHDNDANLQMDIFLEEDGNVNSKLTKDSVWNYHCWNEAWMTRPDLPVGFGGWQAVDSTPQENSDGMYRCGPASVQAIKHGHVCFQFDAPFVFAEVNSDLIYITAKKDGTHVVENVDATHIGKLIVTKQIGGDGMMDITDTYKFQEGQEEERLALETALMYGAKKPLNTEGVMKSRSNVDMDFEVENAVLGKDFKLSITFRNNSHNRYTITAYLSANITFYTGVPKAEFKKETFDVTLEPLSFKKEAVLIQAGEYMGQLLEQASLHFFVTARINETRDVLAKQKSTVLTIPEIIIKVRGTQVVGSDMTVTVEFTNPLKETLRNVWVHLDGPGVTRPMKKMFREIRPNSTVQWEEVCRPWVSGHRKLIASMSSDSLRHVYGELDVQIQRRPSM
The experiment in a line: Primary FXIIIa screening assay (cross-linking of biotinylated fibrinogen and immobilized fibronectin). It is filed as biochemical.
Description: The primary FXIIIa screening assay used a 96-well high throughput assay format. This assay assesses test sample inhibition of FXIIIa catalyzed cross-linking of biotinylated fibrinogen and immobilized fibronectin.
Test samples (possibly containing FXIIIa inhibitors) were added to 96-well plates coated with fibronectin, followed by the addition of FXIIIa, as described in the primary FXIIIa screening assay, below. Biotinylated fibrinogen was added to the wells, and streptavidin-alkaline phosphatase was used to detect biotinylated fibrinogen that had been cross-linked to fibronectin.
Purified fibronectin was diluted to 1 μg/ml in 0.1M Na2 CO3, pH 9.7, and added to control and test assay wells of 96-well plates at 100 μl/well. All wells were incubated overnight at 4° C.
After incubation, the plate wells were washed twice with 200 μl/well of wash buffer per wash to remove all fibronectin not bound to the wells. The wash buffer contained 0.135M NaCl, 2.7 mM KCl, 25 mM Tris at about pH 7.4, and 0.1% Tween 20® (Sigma Chemical Co., St. Louis, Mo.; polyoxyethylenesorbitan monolaurate). The plate wells were then blocked with 200 μl/well blocking buffer and incubated for 1-2 h at 37° C. The blocking buffer contained 0.135M NaCl, 2.7 mM KCl, 25 mM Tris at about pH 7.4, 0.1% Tween 20®, and 0.5% BSA (bovine serum albumin, Sigma fraction V; Sigma). After incubation, the plates wells were again washed with 200 μl/well of wash buffer to remove excess blocking buffer.
Briefly, fibrinogen was dialyzed against 0.1M NaHCO3, pH 8.5 (coupling buffer) at a concentration of 1 mg/ml. BNHS was dissolved in dimethylformamide at a concentration of 1.7 mg/ml, and added to fibrinogen in coupling buffer at a ratio of 30 μl BNHS to 1 ml fibrinogen. The mixture was incubated with rocking for 4 h at room temperature, dialyzed against PBS, and stored in aliquots at -80° C.
Biotinylated fibrinogen (40 μl of 20 μg/ml solution) was added to each plate well. Except in control wells (which received 10 μl of 10% DMSO alone), 10 μl of each of the 11,198 crude extracts in 10% DMSO were added to duplicate wells after the addition of biotinylated fibrinogen, resulting in a 1% final assay concentration of DMSO.
FXIIIa (recombinant human FXIIIa2 (ZymoGenetics), as described in European Patent No. 0 268 772, granted Apr. 26, 1995, and incorporated herein by reference) was diluted to 100 μg/ml in a solution of 50 mM Tris, 5 mM CaCl2 at pH 7.4 containing 1 unit/ml thrombin (bovine; Enzyme Research Labs) and incubated for 20 min at 37° C. FXIIIa then was diluted to 1 μg/ml in a cross-linking buffer consisting of the blocking buffer described above plus 20 mM CaCl2 and 75 ng/ml D-phenylalanyl-L-prolyl-L-arginine chloromethyl ketone (PPACK; Calbiochem, La Jolla, Calif.). Fifty microliters of FXIIIa in cross-linking buffer was added to each test and control well. All wells then were incubated for about 10 min at 37° C.
After incubation, the wells were washed twice with 200 μl/well of wash buffer to remove all biotinylated fibrinogen that was not cross-linked to fibronectin.

Assay [2] concerns the target T2, tissue transglutaminase (tTG) (Cavia cutleri, UniProt P08587).
T2 construct: purchased Sigma
T2 sequence (P08587 1-690): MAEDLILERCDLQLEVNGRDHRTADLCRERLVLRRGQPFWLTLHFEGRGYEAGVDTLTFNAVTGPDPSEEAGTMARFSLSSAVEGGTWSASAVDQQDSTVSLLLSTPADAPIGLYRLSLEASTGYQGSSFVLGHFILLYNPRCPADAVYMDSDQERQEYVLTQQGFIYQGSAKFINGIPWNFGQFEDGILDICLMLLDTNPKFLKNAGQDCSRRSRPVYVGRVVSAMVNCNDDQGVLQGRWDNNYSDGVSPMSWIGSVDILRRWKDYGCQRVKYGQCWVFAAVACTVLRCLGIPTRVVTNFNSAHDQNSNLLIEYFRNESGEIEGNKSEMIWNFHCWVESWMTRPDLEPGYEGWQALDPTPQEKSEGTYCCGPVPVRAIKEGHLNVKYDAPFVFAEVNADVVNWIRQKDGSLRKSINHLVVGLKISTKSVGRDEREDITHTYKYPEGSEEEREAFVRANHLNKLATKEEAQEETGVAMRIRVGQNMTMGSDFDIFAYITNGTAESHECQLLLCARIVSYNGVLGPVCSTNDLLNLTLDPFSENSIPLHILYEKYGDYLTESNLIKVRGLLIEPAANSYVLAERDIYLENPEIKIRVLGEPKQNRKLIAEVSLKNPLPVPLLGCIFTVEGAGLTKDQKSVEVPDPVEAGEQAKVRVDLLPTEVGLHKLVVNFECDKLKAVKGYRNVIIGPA
The experiment in a line: tTG screening assay. The assay is classed as biochemical. An excerpt:
Because FXIII is a member of the tissue transglutaminase (tTG) family, all potential FXIIIa inhibitors identified in the primary FXIIIa screening assay were further screened for tTG (non-FXIII-specific) inhibitory activity. The tTG screening assay was identical to the primary FXIIIa screening assay, except that tTG (Sigma) was used instead of FXIIIa and no thrombin or PPACK was used.
The determination of IC50 values was done the same as in the primary FXIIIa screening assay, except that purified compounds were used at varying concentrations (instead of crude culture extracts). The IC50 values allow one to make comparisons of one compound to another.

The mark [3] stands for this setting: purified compound, read-out: IC50 FXIIIa Primary Screen.
Where [4] appears, read: purified compound, read-out: IC50 tTG Screen.

Where two headings read alike, the source gives them in different places.

One may read the IC50 as the midpoint of a concentration-inhibition curve. Consider `CC=CCC=CCCC(=O)C1OC1C(N)=O` (stereo not drawn) [Cerulenin, 2,3-epoxy-4-oxo-7,10-dodecadienamide], for which the figures for the IC50 in assay [1] (setting [3]) and in assay [2] (setting [4]) were 29 µM and 25 µM, respectively.
As to `NC(=O)CI` [Iodoacetamide, iodoacetamide], the IC50 in assay [1] is 320 µM; in assay [2] it was 10 µM.
Turning to `C[C@@H]1CCC/C=C\C(=O)Cc2cc(O)cc(O)c2C(=O)O1` [ZG-1400, R(-) enantiomer of cis-resorcylide], the “inhibition of FXIIIa” value in assay [1] (0.01X concentration) was “about 65%”. Further, the IC50 is 5.7 µM in assay [1] (setting [3]) and 3.1 µM in assay [2] (setting [4]). Further, the “inhibition of tTG” value in assay [2] (0.01X concentration) was “about 95%”; in assay [2] (0.1X concentration), “about 70%”.
